Reference: patent publication US20170298051A1, “ACTIVATOR OF ADIPONECTIN RECEPTOR” (THE UNIVERSITY OF TOKYO, priority 2013, published 2017)

Columns and labels:
AdipoR1 [1] = target: T1, AdipoR1 (Homo sapiens, UniProt Q96A54); test: Measurement of AMPK phosphorylation ability (Assay 2), HEK 293T cells with unrelated or AdipoR1 siRNA; format: cell-based; design: HEK 293T cells (ATCC; CRL-3216, medium; host or cells: HEK 293T
T1 sequence (Q96A54 1-375): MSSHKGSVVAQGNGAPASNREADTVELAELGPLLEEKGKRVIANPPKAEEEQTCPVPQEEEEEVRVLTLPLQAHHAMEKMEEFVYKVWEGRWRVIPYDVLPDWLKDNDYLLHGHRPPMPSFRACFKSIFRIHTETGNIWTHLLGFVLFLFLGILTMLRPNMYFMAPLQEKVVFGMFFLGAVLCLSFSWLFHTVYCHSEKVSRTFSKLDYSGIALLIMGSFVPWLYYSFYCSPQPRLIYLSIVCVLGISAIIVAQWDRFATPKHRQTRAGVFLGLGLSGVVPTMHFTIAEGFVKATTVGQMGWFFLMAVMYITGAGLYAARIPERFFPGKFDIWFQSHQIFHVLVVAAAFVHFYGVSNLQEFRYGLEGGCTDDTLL
Experimental: HEK 293T cells (medium; DMEM, 10% FBS) were cultured in a 24-well plate until they reached 60% confluency (37° C., 5% CO2).
First, 1 μL of Lipofectamine RNAiMAX and 50 μL of OPTI-MEM were mixed, and then 5 μM siRNA (sense siRNA sequence: […]tt (SEQ ID NO: 1)) and 50 μL of OPTI-MEM were mixed and the resultants were left to stand at room temperature for 5 minutes. And then, the 1 μL Lipofectamine RNAiMAX/50 μL OPTI-MEM and the 5 μM siRNA/50 μL OPTI-MEM were mixed, and the resultant was left to stand at room temperature for 10 minutes, which was added to the cells.
After 5 minutes, the medium (DMEM, 10% FBS) was replaced, and after starvation on the next day, a test compound listed in Tables 10 and 11 was added thereto. After 10 minutes, the medium was discarded and the plate was frozen with liquid nitrogen.
The respective amounts of pAMPK and AMPK were determined in the same way as in the above Assay 1.

AdipoR1 [2] = target: T1, AdipoR1; test: Measurement of AMPK phosphorylation ability (Assay 1), HEK 293T cells, Western blotting; format: cell-based; design: HEK 293T cells (ATCC; CRL-3216, medium; host or cells: HEK 293T; conditions: 10 minutes
Experimental: The AMPK phosphorylation ability of the respective compounds according to the present invention was measured by using differentiated C2C12 cells or HEK 293T cells.
HEK 293T cells (ATCC; CRL-3216, medium; DMEM, Fetal Bovine Serum (FBS)) were cultured in a 12- or 24-well plate until they reached 100% confluency (37° C., 5% CO2).
After starvation, a test compound listed in Tables 10 and 11 (concentration: 25 μM, 50 μM) was added thereto, and after 10 minutes, the medium was discarded and the plate was frozen with liquid nitrogen.
To the 12- or 24-well cell plate which had been frozen was added 100 or 150 μL of Cell lysis buffer pH 7.4 (50 mM HEPES (pH 7.4), 2 mM sodium orthovanadate, 10 mM sodium pyrophosphate, 10 mM NaF, 2 mM EDTA, 2 mM EGTA, 0.1% (v/v) NP-40, 0.2 mM PMSF), and the cells were scraped off with a cell scraper, suspended and transferred into a micro centrifugal tube. And then, the cells were ultrasonically crushed (1 second×3 times) with a sonicator. Centrifugation was performed at 4° C. at 15,000 rpm for 15 minutes, and the supernatant was recovered into a new tube.
To 100 μL of the supernatant was added 25 μL of 5× sample buffer (280 mM Tris-HCl (pH 6.9), 40% glycerol, 10% (3-mercaptoethanol, 13% SDS, a small amount of bromophenol blue) and mixed together. The rest of the supernatant was used for protein quantification, and the protein concentrations were uniformed by adding 1× sample buffer depending on the concentration of each sample.
An electrophoresis chamber was filled with 1× SDS buffer (25 mM Tris-HCl, 250 mM glycine, 0.1% SDS), and the sample was applied to a well of polyacrylamide gel. Electrophoresis was performed until the bromophenol blue in the sample reached to the bottom of the gel.
A filter paper was soaked in 1× Transfer buffer sufficiently, above which the PVDF membrane and the gel after electrophoresis were stacked in this order, and thereabove a filter paper which had been soaked in 1× Transfer buffer sufficiently was further stacked, from which an air was removed and the resultant was set in semi-dry type transfer apparatus and transferred (7V, 35 minutes).
An unnecessary portion of the blotted membrane was cutoff, and the rest was immediately soaked in blocking buffer (5% skimmed milk in Rinse buffer), and shaken at room temperature at 40 rpm for 3 hours.
After blocking, the membrane was transferred into Rinse buffer, and washed at room temperature for 10 minutes while shaking. The membrane was soaked in a primary antibody solution (AMPK alpha Antibody (Cell signaling; #2532) 1/1,000 in Rinse buffer, Phospho-AMPK alpha (Thr172) (40H9) antibody (Cell signaling; #2535) 1/1,000 in Rinse buffer), and shaken at 4° C. at 40 rpm overnight.
The membrane was soaked in a secondary antibody solution (goat anti-rabbit IgG-HRP Antibody (Santa Cruz; sc-2030) 1/2,000 in Rinse buffer), and shaken at room temperature at 40 rpm for 1 hour.
After the membrane was washed for 45 minutes in the same way as after the primary antibody reaction, the membrane was soaked in a chemiluminescent reaction solution (ECL Western Blotting Detection Reagents, GE Healthcare) for about 1 minute. An excess of the reaction solution was removed, and then the membranes were arranged on a transparent film and sandwiched with it, with which an X-ray film was exposed in a darkroom (for about several seconds to 60 seconds) to develop the film.
The X-ray film was scanned to take the image, for which the band was measured by using the image analysis software “Image J” to determine the respective amounts of pAMPK and AMPK.

Row | SMILES | pAMPK/AMPK (ratio) siRNA, AdipoR1 siRNA (AdipoR1 [1]) [ratio] | pAMPK/AMPK (ratio) siRNA, unrelated siRNA (AdipoR1 [1]) [ratio] | pAMPK/AMPK (%) (AdipoR1 [2]; 25 μM) | pAMPK/AMPK (%) (AdipoR1 [2]; 50 μM)
1 | CCc1ccc(OCC(=O)NC2CCN(C(C)c3ccccc3)CC2)cc1 (stereo not drawn) [Compound 31] | 2.61 | 3.17 | 80.60 | 80.60
2 | COc1ccc(CN2CCC(NC(=O)COc3ccc(C(F)(F)F)cc3)CC2)cc1F [Compound 35] | 2.01 | 3.38 | 80.77 | 83.74
3 | O=C(NCCC(=O)N1CCN(Cc2cccc(O)c2)CC1)c1ccc2ccccc2c1 [Compound 70] | 2.46 | 2.43 | 84.71 | 88.96
4 | NC(=O)c1ccc(OCC(=O)NC2CCN(Cc3ccc(Br)cc3)CC2)cc1 [Compound 21] | 1.92 | 2.34 | 81.11 | 83.12
5 | O=C(COc1ccc(Oc2ccccc2)cc1)NC1CCN(Cc2ccccc2)CC1 [Compound 36] | 2.56 | 2.52 | 80.42 | 84.19
6 | O=C(COc1ccc(Cl)cc1)NC1CCN(Cc2ccc(Cl)c(Cl)c2)CC1 [Compound 33] | 2.63 | 2.88 | 106.31 | 84.10
7 | O=C(NCCC(=O)N1CCN(Cc2cccc(OC(F)(F)F)c2)CC1)c1ccc([N+](=O)[O-])cc1 [Compound 69] | 4.03 | 5.28 | 80.04 | 100.79
8 | O=C(COc1ccc(C(=O)c2ccc(Cl)cc2)cc1)NC1CCN(Cc2ccccc2)CC1 [Compound 11] | 3.75 | 2.58 | 83.12 | 102.94
9 | Cc1ccccc1CN1CCC(NC(=O)COc2ccc(Oc3ccccn3)cc2)CC1 [Compound 46] | 2.74 | 2.58 | 80.93 | 80.11
10 | CC(c1ccccc1)N1CCC(NC(=O)COc2ccc(Oc3ccccn3)cc2)CC1 (stereo not drawn) [Compound 47] | 2.44 | 2.78 | 80.31 | 80.39
11 | CC(C)(C)c1ccc(C(=O)NCCC(=O)N2CCN(Cc3cccc4cccnc34)CC2)cc1 [Compound 53] | 2.04 | 2.26 | 91.44 | 81.80
12 | O=C(COc1ccc(C(=O)c2ccccc2)cc1)NC1CCN(Cc2ccc(Cl)cc2)CC1 [Compound 12] | 2.47 | 2.51 | 106.36 | 82.93
13 | CC(C)(C)c1ccc(C(=O)NCCC(=O)N2CCN(Cc3cccc(O)c3)CC2)cc1 [Compound 52] |  |  | 66.63 | 85.17
14 | CC(C)c1ccc(OCC(=O)NC2CCN(C(C)c3ccccc3)CC2)cc1 (stereo not drawn) [Compound 2] |  |  | 77.78 | 90.47
15 | CCOc1ccc(CN2CCN(C(=O)CCNC(=O)c3ccc(F)cc3Cl)CC2)cc1 [Compound 61] |  |  | 78.20 | 76.51
16 | O=C(COc1ccc(I)cc1)NC1CCN(Cc2ccccc2)CC1 [Compound 10] |  |  | 83.62 | 72.56
17 | COc1ccc(CN2CCN(C(=O)CCNC(=O)c3ccccc3C)CC2)cc1OC [Compound 50] |  |  | 39.00 | 71.13
18 | CCCOc1ccc(OCC(=O)NC2CCN(C(=O)c3ccc(C)cc3)CC2)cc1 [Compound 42] |  |  | 69.97 | 89.62
19 | COc1ccc(OC)c(CN2CCN(C(=O)CCNC(=O)c3ccc([N+](=O)[O-])cc3)CC2)c1 [Compound 66] |  |  | 43.00 | 55.80
20 | Cc1cccc(CN2CCC(NC(=O)COc3ccc(C4SCCCS4)cc3)CC2)c1 [Compound 28] |  |  | 71.21 | 78.89
21 | COc1ccc(CN2CCN(C(=O)CCNC(=O)c3ccccc3)CC2)c(OC)c1OC [Compound 51] |  |  | 33.33 | 55.14
22 | O=C(NCCC(=O)N1CCN(Cc2ccc(F)cc2Cl)CC1)c1ccc(Cl)cc1 [Compound 55] |  |  | 61.64 | 105.20
23 | Cc1ccc(C(=O)N2CCC(NC(=O)COc3ccc(C4SCCCS4)cc3)CC2)cc1 [Compound 29] |  |  | 72.45 | 74.42
24 | COc1cc(C(C)=O)ccc1OCC(=O)NC1CCN(C(C)c2ccccc2)CC1 (stereo not drawn) [Compound 13] |  |  | 40.65 | 39.95
